# Measurements published in patent publication US20160120979A1, “METHOD OF APPLYING A COMPOSITION AND PHARMACEUTICAL COMPOSITION WITH A REGIMEN OF ADMINISTERING IT” (priority 2013, published 2016).
# How the values were obtained:
# [1] = tested on: Staphylococcus aureus MU500; test: Experiment 12: replication on antibiotic agar after pulsed 400 nm irradiation; format: cell-based; details: 24 hours incubation; for E: Staphylococcus aureus MU500 (no irradiation), replication: antibiotic 10 mg/l in MH agar; for F: Staphylococcus aureus MU500 (irradiation), replication: antibiotic 10 mg/l, 400 nm LED pulses 0.02 ms, 1 kHz, 10 minutes
# Experimental: (§1) 15′000′000 multi-resistant bacteriae (0.050 ml of a McFarland of 1) were put on 40 mm diameter petri dishes. The petri dishes comprised MH agar with or without antibiotic.
# The LED power during 0.02 ms was measured to be 0.63 W on a Thorlabs power sensor with a surface area of 2.2×2.2 mm representing a power of 13 mW/cm^2.
# Pseudomonas aeruginosa = test: as above; format: cell-based; details: 24 hours incubation; for A: Pseudomonas aeruginosa (no irradiation), replication: antibiotic 10 mg/l in MH agar; for B: Pseudomonas aeruginosa (irradiation), replication: antibiotic 10 mg/l, 400 nm LED pulses 0.02 ms, 1 kHz, 10 minutes
# Experimental: as §1
# (§2) […]. The LED power during 0.02 ms was measured to be 0.63 W on a Thorlabs power sensor with a surface area of 2.2×2.2 mm representing a power of 13 mW/cm^2.
# Acinetobacter = test: as above; format: cell-based; details: 24 hours incubation; for C: Acinetobacter (no irradiation), replication: antibiotic 10 mg/l in MH agar; for D Acinetobacter (irradiation), replication: antibiotic 10 mg/l, 400 nm LED pulses 0.02 ms, 1 kHz, 10 minutes
# Experimental: as §1, §2
# [2] = tested on: multi-drug resistant MU 50 bacterial cells; test: Experiment 1: killing of MU50 by antibiotic with/without riboflavin and UVA 365 nm (CFU); format: cell-based, Staphylococcus aureus
# Experimental: The first experiment compares the effect of two antibiotics incubated with multi-drug resistant MU 50 bacterial cells accompanied by exposure to UVA light at 365 nm. […] Furthermore, the antibiotics were administered in the presence and absence of riboflavin, to test the free radical effect of riboflavin.
# After addition of the antibiotic and optionally riboflavin to the bacterial samples they were incubated for 1 or for 30 minutes in Experiment 1A and for 30 minutes in Experiment 1B prior to the UV-A exposure at 365 nm with 9 mW/cm^2 for 10 minutes.
# In Experiment 1B the added antibiotic was tobramycin at a concentration of 135 μg/ml.
# [3] = tobramycin 135 μg/ml, incubation 30 min, no riboflavin, with UVA 365 nm 9 mW/cm^2 10 min
# [4] = tobramycin 135 μg/ml, incubation 30 min, with riboflavin, with UVA 365 nm 9 mW/cm^2 10 min
# [5] = ofloxacin 240 μg/ml, incubation 1 min, no riboflavin, no UVA
# [6] = ofloxacin 240 μg/ml, incubation 1 min, no riboflavin, with UVA 365 nm 9 mW/cm^2 10 min
# [7] = ofloxacin 240 μg/ml, incubation 1 min, with riboflavin, no UVA
# [8] = ofloxacin 240 μg/ml, incubation 1 min, with riboflavin, with UVA 365 nm 9 mW/cm^2 10 min
# [9] = ofloxacin 240 μg/ml, incubation 30 min, no riboflavin, no UVA
# [10] = ofloxacin 240 μg/ml, incubation 30 min, no riboflavin, with UVA 365 nm 9 mW/cm^2 10 min
# [11] = ofloxacin 240 μg/ml, incubation 30 min, with riboflavin, no UVA
# [12] = ofloxacin 240 μg/ml, incubation 30 min, with riboflavin, with UVA 365 nm 9 mW/cm^2 10 min
smiles,measurement,setting,value
CN(C)c1ccc(O)c2c1C[C@H]1C[C@H]3[C@H](N(C)C)C(O)=C(C(N)=O)C(=O)[C@@]3(O)C(O)=C1C2=O [Minocycline],"E: Staphylococcus aureus MU500 (no irradiation), replication",[1],R (Bacteria can replicate after the treatment)
same,"F: Staphylococcus aureus MU500 (irradiation), replication",[1],NR (No replication)
same,"A: Pseudomonas aeruginosa (no irradiation), replication",Pseudomonas aeruginosa,R (Bacteria can replicate after the treatment)
same,"B: Pseudomonas aeruginosa (irradiation), replication",Pseudomonas aeruginosa,NR (No replication)
same,"C: Acinetobacter (no irradiation), replication",Acinetobacter,R (Bacteria can replicate after the treatment)
same,"D Acinetobacter (irradiation), replication",Acinetobacter,NR (No replication)
NC[C@H]1O[C@H](O[C@H]2[C@H](O)[C@@H](O[C@H]3O[C@H](CO)[C@@H](O)[C@H](N)[C@H]3O)[C@H](N)C[C@@H]2N)[C@H](N)C[C@@H]1O [Tobramycin],CFU first run,[2]; [3],416 CFU
same,CFU second run,[2]; [3],481 CFU
same,Killed first run,[2]; [3],36%
same,Killed second run,[2]; [3],25%
same,CFU first run,[2]; [4],144 CFU
same,CFU second run,[2]; [4],159 CFU
same,Killed first run,[2]; [4],78%
same,Killed second run,[2]; [4],75%
same,"E: Staphylococcus aureus MU500 (no irradiation), replication",[1],R (Bacteria can replicate after the treatment)
same,"F: Staphylococcus aureus MU500 (irradiation), replication",[1],R (Bacteria can replicate after the treatment)
same,"A: Pseudomonas aeruginosa (no irradiation), replication",Pseudomonas aeruginosa,R (Bacteria can replicate after the treatment)
same,"B: Pseudomonas aeruginosa (irradiation), replication",Pseudomonas aeruginosa,NR (No replication)
same,"C: Acinetobacter (no irradiation), replication",Acinetobacter,R (Bacteria can replicate after the treatment)
same,"D Acinetobacter (irradiation), replication",Acinetobacter,R (Bacteria can replicate after the treatment)
COc1c(N2CCNC(C)C2)c(F)cc2c(=O)c(C(=O)O)cn(C3CC3)c12 (stereo not shown) [Gatifloxacin],"E: Staphylococcus aureus MU500 (no irradiation), replication",[1],R (Bacteria can replicate after the treatment)
same,"F: Staphylococcus aureus MU500 (irradiation), replication",[1],PR (Bacteria can replicate partially)
same,"A: Pseudomonas aeruginosa (no irradiation), replication",Pseudomonas aeruginosa,R (Bacteria can replicate after the treatment)
same,"B: Pseudomonas aeruginosa (irradiation), replication",Pseudomonas aeruginosa,NR (No replication)
same,"C: Acinetobacter (no irradiation), replication",Acinetobacter,R (Bacteria can replicate after the treatment)
same,"D Acinetobacter (irradiation), replication",Acinetobacter,NR (No replication)
CN(C)c1cc(NC(=O)CNC(C)(C)C)c(O)c2c1C[C@H]1C[C@H]3[C@H](N(C)C)C(O)=C(C(N)=O)C(=O)[C@@]3(O)C(O)=C1C2=O [Tigecycline],"E: Staphylococcus aureus MU500 (no irradiation), replication",[1],R (Bacteria can replicate after the treatment)
same,"F: Staphylococcus aureus MU500 (irradiation), replication",[1],NR (No replication)
same,"A: Pseudomonas aeruginosa (no irradiation), replication",Pseudomonas aeruginosa,R (Bacteria can replicate after the treatment)
same,"B: Pseudomonas aeruginosa (irradiation), replication",Pseudomonas aeruginosa,NR (No replication)
same,"C: Acinetobacter (no irradiation), replication",Acinetobacter,R (Bacteria can replicate after the treatment)
same,"D Acinetobacter (irradiation), replication",Acinetobacter,NR (No replication)
C[C@H]1COc2c(N3CCN(C)CC3)c(F)cc3c(=O)c(C(=O)O)cn1c23 [Levofloxacin],"E: Staphylococcus aureus MU500 (no irradiation), replication",[1],R (Bacteria can replicate after the treatment)
same,"F: Staphylococcus aureus MU500 (irradiation), replication",[1],PR (Bacteria can replicate partially)
same,"A: Pseudomonas aeruginosa (no irradiation), replication",Pseudomonas aeruginosa,R (Bacteria can replicate after the treatment)
same,"B: Pseudomonas aeruginosa (irradiation), replication",Pseudomonas aeruginosa,NR (No replication)
same,"C: Acinetobacter (no irradiation), replication",Acinetobacter,R (Bacteria can replicate after the treatment)
same,"D Acinetobacter (irradiation), replication",Acinetobacter,NR (No replication)
CN(C)[C@@H]1C(O)=C(C(=O)NCNCCCC[C@H](N)C(=O)O)C(=O)[C@@]2(O)C(O)=C3C(=O)c4c(O)cccc4[C@@](C)(O)[C@H]3C[C@@H]12 [Lymecycline],"E: Staphylococcus aureus MU500 (no irradiation), replication",[1],R (Bacteria can replicate after the treatment)
same,"F: Staphylococcus aureus MU500 (irradiation), replication",[1],NR (No replication)
same,"A: Pseudomonas aeruginosa (no irradiation), replication",Pseudomonas aeruginosa,R (Bacteria can replicate after the treatment)
same,"B: Pseudomonas aeruginosa (irradiation), replication",Pseudomonas aeruginosa,NR (No replication)
same,"C: Acinetobacter (no irradiation), replication",Acinetobacter,R (Bacteria can replicate after the treatment)
same,"D Acinetobacter (irradiation), replication",Acinetobacter,NR (No replication)
CN(C)[C@@H]1C(O)=C(C(N)=O)C(=O)[C@@]2(O)C(O)=C3C(=O)c4c(O)cccc4[C@@](C)(O)[C@H]3[C@H](O)[C@@H]12 [Oxytetracycline],"E: Staphylococcus aureus MU500 (no irradiation), replication",[1],R (Bacteria can replicate after the treatment)
same,"F: Staphylococcus aureus MU500 (irradiation), replication",[1],NR (No replication)
same,"A: Pseudomonas aeruginosa (no irradiation), replication",Pseudomonas aeruginosa,R (Bacteria can replicate after the treatment)
same,"B: Pseudomonas aeruginosa (irradiation), replication",Pseudomonas aeruginosa,NR (No replication)
same,"C: Acinetobacter (no irradiation), replication",Acinetobacter,R (Bacteria can replicate after the treatment)
same,"D Acinetobacter (irradiation), replication",Acinetobacter,NR (No replication)
CC1COc2c(N3CCN(C)CC3)c(F)cc3c(=O)c(C(=O)O)cn1c23 (stereo not shown) [Ofloxacin],CFU first run,[2]; [5],505 CFU
same,CFU second run,[2]; [5],351 CFU
same,Killed first run,[2]; [5],12%
same,Killed second run,[2]; [5],14%
same,CFU first run,[2]; [6],9 CFU
same,CFU second run,[2]; [6],9 CFU
same,Killed first run,[2]; [6],98%
same,Killed second run,[2]; [6],98%
same,CFU first run,[2]; [7],574 CFU
same,CFU second run,[2]; [7],391 CFU
same,Killed first run,[2]; [7],0%
same,Killed second run,[2]; [7],4%
same,CFU first run,[2]; [8],144 CFU
same,CFU second run,[2]; [8],98 CFU
same,Killed first run,[2]; [8],75%
same,Killed second run,[2]; [8],76%
same,CFU first run,[2]; [9],490 CFU
same,CFU second run,[2]; [9],350 CFU
same,Killed first run,[2]; [9],15%
same,Killed second run,[2]; [9],14%
same,CFU first run,[2]; [10],7 CFU
same,CFU second run,[2]; [10],15 CFU
same,Killed first run,[2]; [10],99%
same,Killed second run,[2]; [10],96%
same,CFU first run,[2]; [11],570 CFU
same,CFU second run,[2]; [11],363 CFU
same,Killed first run,[2]; [11],1%
same,Killed second run,[2]; [11],11%
same,CFU first run,[2]; [12],171 CFU
same,CFU second run,[2]; [12],193 CFU
same,Killed first run,[2]; [12],70%
same,Killed second run,[2]; [12],53%
same,"E: Staphylococcus aureus MU500 (no irradiation), replication",[1],R (Bacteria can replicate after the treatment)
same,"F: Staphylococcus aureus MU500 (irradiation), replication",[1],PR (Bacteria can replicate partially)
same,"A: Pseudomonas aeruginosa (no irradiation), replication",Pseudomonas aeruginosa,R (Bacteria can replicate after the treatment)
same,"B: Pseudomonas aeruginosa (irradiation), replication",Pseudomonas aeruginosa,NR (No replication)
same,"C: Acinetobacter (no irradiation), replication",Acinetobacter,R (Bacteria can replicate after the treatment)
same,"D Acinetobacter (irradiation), replication",Acinetobacter,NR (No replication)
